Experimental data as given in PMC8698521 (RSC Advances, 2021).

Key:
Assay in all cases: Glycosidase inhibition, spectrophotometric p-nitrophenyl glycoside assay
[1] = target: α-Glucosidase from Saccharomyces cerevisiae (Saccharomyces cerevisiae, UniProt P53341); conditions: pH 7.2, read-out: Percentage inhibition (%) at 1 mM concentration of the inhibitor
[2] = test system: β-Glucosidase from almonds; conditions: 1 mM inhibitor; 37 °C, 30 min; NI = no inhibition up to 20 mM
[3] = target: T1, α-Mannosidase from jack bean (Canavalia ensiformis, UniProt C0HJB3); conditions: for inhibition at 1000 µM: pH 4.5, read-out: Percentage inhibition (%) at 1 mM concentration of the inhibitor
T1 sequence (C0HJB3 1-981): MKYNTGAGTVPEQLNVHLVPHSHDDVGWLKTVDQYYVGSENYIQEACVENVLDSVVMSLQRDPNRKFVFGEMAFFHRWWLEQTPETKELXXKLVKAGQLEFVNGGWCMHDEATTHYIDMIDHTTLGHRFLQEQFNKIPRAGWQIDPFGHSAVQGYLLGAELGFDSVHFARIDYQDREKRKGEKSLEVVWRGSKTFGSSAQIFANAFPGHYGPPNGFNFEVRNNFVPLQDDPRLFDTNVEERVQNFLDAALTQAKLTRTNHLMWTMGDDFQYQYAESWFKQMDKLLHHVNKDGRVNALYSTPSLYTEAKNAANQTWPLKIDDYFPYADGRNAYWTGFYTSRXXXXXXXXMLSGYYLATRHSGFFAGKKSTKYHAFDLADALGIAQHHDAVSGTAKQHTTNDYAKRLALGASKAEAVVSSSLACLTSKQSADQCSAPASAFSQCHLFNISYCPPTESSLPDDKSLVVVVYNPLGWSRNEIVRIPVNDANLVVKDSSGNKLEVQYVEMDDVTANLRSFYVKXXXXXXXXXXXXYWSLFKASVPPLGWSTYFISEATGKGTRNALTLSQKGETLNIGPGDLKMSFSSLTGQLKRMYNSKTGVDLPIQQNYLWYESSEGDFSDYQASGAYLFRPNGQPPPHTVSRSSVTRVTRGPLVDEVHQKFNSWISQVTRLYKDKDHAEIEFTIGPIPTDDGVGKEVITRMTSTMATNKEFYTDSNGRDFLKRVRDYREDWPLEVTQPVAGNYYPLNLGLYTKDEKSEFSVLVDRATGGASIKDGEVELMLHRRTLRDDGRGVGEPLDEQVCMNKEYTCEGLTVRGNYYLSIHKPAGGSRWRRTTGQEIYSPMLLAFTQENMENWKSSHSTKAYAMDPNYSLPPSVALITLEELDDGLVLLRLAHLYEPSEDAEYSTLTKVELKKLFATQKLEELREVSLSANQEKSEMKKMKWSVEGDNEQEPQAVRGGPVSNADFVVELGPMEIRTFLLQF

[4] = target: α-Galactosidase from green coffee beans (Coffea arabica, UniProt Q42656)
Sequence of α-Galactosidase from green coffee beans (Q42656 16-378): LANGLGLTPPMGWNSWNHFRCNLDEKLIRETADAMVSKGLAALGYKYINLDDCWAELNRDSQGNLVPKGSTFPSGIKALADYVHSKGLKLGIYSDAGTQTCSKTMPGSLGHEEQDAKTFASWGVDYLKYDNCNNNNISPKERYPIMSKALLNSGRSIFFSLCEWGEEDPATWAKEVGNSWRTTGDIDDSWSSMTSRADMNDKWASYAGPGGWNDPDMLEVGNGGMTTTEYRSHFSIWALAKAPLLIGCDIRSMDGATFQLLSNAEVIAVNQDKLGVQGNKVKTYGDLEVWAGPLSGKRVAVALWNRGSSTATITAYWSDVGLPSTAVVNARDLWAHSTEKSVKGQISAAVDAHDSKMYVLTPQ

[5] = test system: β-Mannosidase from Helix pomatia
[6] = target: T2, β-Galactosidase from Aspergillus oryzae (Aspergillus oryzae, UniProt Q2UCU3)
T2 sequence (Q2UCU3 19-1005): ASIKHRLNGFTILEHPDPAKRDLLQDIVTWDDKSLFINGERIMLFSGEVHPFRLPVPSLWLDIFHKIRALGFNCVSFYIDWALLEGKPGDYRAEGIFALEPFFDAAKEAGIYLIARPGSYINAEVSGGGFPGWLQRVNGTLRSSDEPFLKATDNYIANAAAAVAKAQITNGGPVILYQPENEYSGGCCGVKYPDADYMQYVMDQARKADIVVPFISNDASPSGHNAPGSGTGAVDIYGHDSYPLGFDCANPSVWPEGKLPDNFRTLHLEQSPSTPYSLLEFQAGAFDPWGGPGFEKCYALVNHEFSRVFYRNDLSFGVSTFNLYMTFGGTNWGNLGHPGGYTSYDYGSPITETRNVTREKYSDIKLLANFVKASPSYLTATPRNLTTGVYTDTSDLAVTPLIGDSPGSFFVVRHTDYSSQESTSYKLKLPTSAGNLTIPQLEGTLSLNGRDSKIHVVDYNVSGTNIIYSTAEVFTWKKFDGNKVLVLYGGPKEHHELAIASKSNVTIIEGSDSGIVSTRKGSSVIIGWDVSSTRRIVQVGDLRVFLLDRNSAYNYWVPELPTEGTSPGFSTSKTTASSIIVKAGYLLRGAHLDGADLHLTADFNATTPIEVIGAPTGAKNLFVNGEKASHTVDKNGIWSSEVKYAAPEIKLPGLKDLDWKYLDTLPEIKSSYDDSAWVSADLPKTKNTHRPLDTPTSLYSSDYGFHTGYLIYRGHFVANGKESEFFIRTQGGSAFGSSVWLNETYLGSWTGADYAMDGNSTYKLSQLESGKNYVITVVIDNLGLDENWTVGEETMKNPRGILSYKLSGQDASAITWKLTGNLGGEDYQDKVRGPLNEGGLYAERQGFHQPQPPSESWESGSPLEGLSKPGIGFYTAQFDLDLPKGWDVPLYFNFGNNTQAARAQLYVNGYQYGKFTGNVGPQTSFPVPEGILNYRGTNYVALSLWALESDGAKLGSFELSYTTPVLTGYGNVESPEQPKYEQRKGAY

Sequence of α-Glucosidase from Saccharomyces cerevisiae (P53341 whole entry): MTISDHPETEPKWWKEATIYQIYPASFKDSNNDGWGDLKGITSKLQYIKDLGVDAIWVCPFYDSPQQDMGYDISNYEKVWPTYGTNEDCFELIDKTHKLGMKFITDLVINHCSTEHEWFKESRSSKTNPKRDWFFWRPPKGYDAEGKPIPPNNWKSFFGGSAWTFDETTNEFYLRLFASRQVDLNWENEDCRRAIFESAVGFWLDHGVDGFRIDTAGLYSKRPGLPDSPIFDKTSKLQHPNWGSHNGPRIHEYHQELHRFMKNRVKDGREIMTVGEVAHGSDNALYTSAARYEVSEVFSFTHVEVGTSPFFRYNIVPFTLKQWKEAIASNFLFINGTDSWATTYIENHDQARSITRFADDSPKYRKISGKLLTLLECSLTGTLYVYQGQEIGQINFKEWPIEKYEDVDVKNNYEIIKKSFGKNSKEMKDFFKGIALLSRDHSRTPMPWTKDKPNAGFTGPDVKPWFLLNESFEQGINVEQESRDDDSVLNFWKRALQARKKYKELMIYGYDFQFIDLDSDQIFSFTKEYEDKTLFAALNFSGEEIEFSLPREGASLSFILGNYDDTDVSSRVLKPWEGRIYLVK

Row | Structure (SMILES) | inhibition at 1000 µM [1] [%] | Percentage inhibition (%) at 1 mM concentration of the inhibitor [2] [%] | inhibition as stated in text [3] | inhibition at 1000 µM [3] [%] | inhibition as stated in text [4] | inhibition at 1000 µM ([4]; pH 6.8, read-out: Percentage inhibition (%) at 1 mM concentration of the inhibitor) [%] | inhibition as stated in text [5] | inhibition as stated in text [6] | inhibition at 1000 µM ([6]; pH 7.2, read-out: Percentage inhibition (%) at 1 mM concentration of the inhibitor) [%]
1 | OCC1=CC[C@@H](O)[C@@H](O)[C@@H](O)[C@@H]1O [Compound 6, (1R,2R,3S,4R)-5-(Hydroxymethyl)cyclohept-5-ene-1,2,3,4-tetraol] | 22.1 | 3.2 |  |  | inhibited | 41.7 |  |  | 
2 | O=C1CC=C(CO)[C@@H](O)[C@H](O)[C@@H]1O [Compound 4, (5R,6S,7S)-5,6,7-Trihydroxy-4-(hydroxymethyl)cyclohept-3-enone] | 41.1 | 12.3 |  |  |  |  | could inhibit |  | 
3 | OCC1=CC[C@H](O)[C@@H](O)[C@@H](O)[C@@H]1O [Compound 5, (1S,2R,3S,4R)-5-(Hydroxymethyl)cyclohept-5-ene-1,2,3,4-tetraol] | 3.3 |  | inhibited | 12.5 |  |  |  |  | 

Other lines, results leading:

Row | inhibition at 1000 µM [1] [%] | Percentage inhibition (%) at 1 mM concentration of the inhibitor [2] [%] | inhibition as stated in text [3] | inhibition at 1000 µM [3] [%] | inhibition as stated in text [4] | inhibition at 1000 µM ([4]; pH 6.8, read-out: Percentage inhibition (%) at 1 mM concentration of the inhibitor) [%] | inhibition as stated in text [5] | inhibition as stated in text [6] | inhibition at 1000 µM ([6]; pH 7.2, read-out: Percentage inhibition (%) at 1 mM concentration of the inhibitor) [%] | Structure (SMILES)
4 | 19.5 | 14.1 | inhibited | 10.6 |  |  |  |  |  | C[C@H]1CC[C@@H](O)[C@@H](O)[C@@H](O)[C@@H]1O [Compound 15, (1R,2R,3S,4R,5S)-5-Methylcycloheptane-1,2,3,4-tetraol]
5 |  | 29.8 | inhibited | 35.1 |  |  |  | inhibits | 12.8 | C[C@@H]1CC[C@@H](O)[C@@H](O)[C@@H](O)[C@@H]1O [Compound 16, (1R,2R,3S,4R,5R)-5-Methylcycloheptane-1,2,3,4-tetraol]
